The conditions of data set [1]: mouse, in vivo. The method, then:
(§1) After 5 minutes, 15 minutes, 30 minutes, 60 minutes, and 120 minutes from the administration, organs were dissected out of the mice (n=5).
as §1
(IB-PEG3)12-Ex4 (0.77 μCi) was administered to unanesthetized 6-week-old ddY mice (male, weight: 30 g) by intravenous injection (through the tail vein). After 5 minutes, 15 minutes, 30 minutes, 60 minutes, and 120 minutes from the administration, organs were dissected out of the mice (n=5). The weight and the radioactivity of each organ were determined, and an accumulation amount (% dose/g) of (IB-PEG3)12-Ex4 was calculated from the radioactivity per unit weight.
as §1
(FB-PEG3)12-Ex4 (5 μCi) was administered to unanesthetized 6-week-old ddY mice (male, weight: 30 g) by intravenous injection (through the tail vein). After 5 minutes, 15 minutes, 30 minutes, 60 minutes, and 120 minutes from the administration, organs were dissected out of the mice (n=5). The weight and the radioactivity of each organ were determined, and an accumulation amount (% dose/g) of (FB-PEG3)12-Ex4 was calculated from the radioactivity per unit weight.
(IB-ePEG12)12-Ex4 (0.21 μCi) was administered to unanesthetized 6-week-old ddY mice (male, weight: 30 g) by intravenous injection (through the tail vein). After 5 minutes, 15 minutes, 30 minutes, 60 minutes, and 120 minutes from the administration, organs were dissected out of the mice (n=5). The weight and the radioactivity of each organ were determined, and an accumulation amount (% dose/g) of (IB-ePEG12)12-Ex4 was calculated from the radioactivity per unit weight.

In a further data set the test system is pancreatic β-cells. The experiment in a line: Two-dimensional imaging analysis (fluorescence and autoradiography) of pancreas sections. The data set is classed as in vivo, MIP-GFP mouse. The note with it: without blocking.

Method for pancreatic β-cells: (IB-PEG3)12-Ex4 (5.6 μCi/100 μl) was administered to an unanesthetized MIP-GFP mouse (male, weight: 20 g) by intravenous injection, and after 30 minutes from the administration, the pancreas was dissected out of the mouse (n=1). Sections were cut out of the dissected pancreas, and each section was placed on a slide glass, covered with a cover glass. The fluorescence and the radioactivity (autoradiography) of each section were determined using an image analyzer (trade name: Typhoon 9410, manufactured by GE Health Care Inc.) (exposure time 24 hours).
Sections were cut out of the dissected pancreas, and each section was placed on a slide glass, covered with a cover glass. The fluorescence and the radioactivity (autoradiography) of each section were determined using an image analyzer (trade name: Typhoon 9410, manufactured by GE Health Care Inc.) (exposure time 48 hours).
Other than these, the fluorescence and the radioactivity were determined in the same manner as above.
(FB-PEG3)12-Ex4 (292 μCi/220 μl) was administered to an unanesthetized MIP-GFP mouse (male, weight: 20 g) by intravenous injection, and after 15 minutes from the administration, the pancreas was dissected out of the mouse (n=1). Sections were cut out of the dissected pancreas, and each section was placed on a slide glass, covered with a cover glass. […]

Consider (IB-ePEG12)12-Ex4, for which, in data set [1], the “accumulation in the pancreas” value is “exceeding 25 % dose/g”, the ratio of pancreas/blood result is listed as “greater than 5” and the ratio of pancreas/liver entry was “greater than 10”.
For the substance (FB-PEG3)12-Ex4, in data set [1], the “accumulation in the pancreas” value was “exceeding 15 % dose/g”, the “radioactive accumulation in the bone” value is recorded as “small”, the ratio of pancreas/blood result is given as “greater than 5” and the ratio of pancreas/liver result is “greater than 10”. Further, the “localization of the radioactivity signal versus GFP signal in pancreas sections” value with pancreatic β-cells is on record as “substantially consistent with that of the GFP signal”.
As for (IB-PEG3)12-Ex4, in data set [1], the “accumulation in the pancreas” value is “exceeding 25 % dose/g”, the ratio of pancreas/blood entry is given as “greater than 5” and the ratio of pancreas/liver entry was “greater than 10”. For the same substance, the “localization of the radioactivity signal versus GFP signal in pancreas sections” value in the data set on pancreatic β-cells is reported as “substantially consistent with that of the GFP signal”.
